{
  "source": "paper PMC6123649",
  "about": "“Structural basis for specific inhibition of the highly sensitive ShHTL7 receptor” (EMBO Reports, 2018)",
  "key": {"AtD14 [1]": {"target": "T1, AtD14 (Arabidopsis thaliana, UniProt Q9SQR3)", "T1 construct": "made in house; host or cells: E. coli BL21 (DE3)", "T1 sequence (Q9SQR3 1-267)": "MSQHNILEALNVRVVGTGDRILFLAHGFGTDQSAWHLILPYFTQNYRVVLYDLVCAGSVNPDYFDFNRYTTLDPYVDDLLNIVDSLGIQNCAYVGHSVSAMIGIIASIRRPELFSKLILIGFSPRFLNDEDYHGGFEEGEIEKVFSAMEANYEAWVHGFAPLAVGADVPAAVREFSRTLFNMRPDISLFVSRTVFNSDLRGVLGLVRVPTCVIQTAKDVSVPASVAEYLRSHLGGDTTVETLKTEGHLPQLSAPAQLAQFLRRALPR", "assay": "YLG hydrolysis assay", "type": "biochemical", "description": "(§1) In vitro YLG hydrolysis assays were performed using 3 μM of ShHTL7, ShHTL7‐L143Y, AtD14, and OsD14 in a reaction buffer (1× PBS) with 0.1% dimethyl sulfoxide (DMSO) in a 100 μl volume on a 96‐well black plate (Greiner). The fluorescent intensity was measured by SpectraMax i3 (Molecular Devices) using an excitation wavelength of 480 nm and a detection wavelength of 520 nm. ShHTL7, ShHTL7‐L143Y, AtD14, and OsD14 were mixed with Triton X‐100, using serial dilutions to cover the Triton X‐100 concentration range from 5 μM until 4.87 nM. Protein‐Triton mixes were pre‐incubated for 30 min. 1 μM YLG (Tokyo Chemical Industry Co. Ltd.) was then added, and the assay was incubated for 60 min. The change in fluorescence observed over the course of 1 h incubation of YLG in buffer without protein was subtracted from the data collected in the presence of protein. The resulting relative fluorescence values were analyzed. The inhibitory curves and IC50 values were plotted using GraphPad (Prism 6) four‐parameter logistic curve. The rate of YLG hydrolysis by ShHTL7 was recorded following the above method at 10‐min interval for 2 h."}, "OsD14 [2]": {"target": "T2, OsD14 (Oryza sativa subsp. japonica, UniProt Q10QA5)", "T2 construct": "made in house; host or cells: E. coli BL21 (DE3)", "T2 sequence (Q10QA5 1-318)": "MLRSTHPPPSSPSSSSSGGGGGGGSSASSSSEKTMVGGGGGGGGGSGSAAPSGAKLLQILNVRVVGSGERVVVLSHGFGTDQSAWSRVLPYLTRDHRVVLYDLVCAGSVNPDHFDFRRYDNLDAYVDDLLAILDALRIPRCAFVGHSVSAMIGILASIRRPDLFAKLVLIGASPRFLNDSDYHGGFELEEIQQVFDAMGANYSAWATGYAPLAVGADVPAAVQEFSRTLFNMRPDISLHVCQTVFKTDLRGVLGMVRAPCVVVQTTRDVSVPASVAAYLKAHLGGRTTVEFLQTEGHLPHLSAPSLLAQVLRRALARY", "assay": "YLG hydrolysis assay", "type": "biochemical", "description": "as §1"}, "ShHTL7 [3]": {"target": "T3, ShHTL7 (Striga hermonthica, UniProt A0A0M3PNA2)", "T3 sequence (A0A0M3PNA2 1-271)": "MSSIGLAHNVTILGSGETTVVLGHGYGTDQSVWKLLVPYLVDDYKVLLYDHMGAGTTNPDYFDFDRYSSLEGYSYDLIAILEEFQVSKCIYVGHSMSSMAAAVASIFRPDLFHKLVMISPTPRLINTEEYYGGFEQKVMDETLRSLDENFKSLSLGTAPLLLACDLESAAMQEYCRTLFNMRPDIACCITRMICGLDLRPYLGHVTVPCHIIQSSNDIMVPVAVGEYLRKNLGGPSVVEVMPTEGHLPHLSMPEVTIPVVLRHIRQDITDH", "assay": "Differential static light scattering (DSLS), aggregation temperature", "type": "binding", "description": "The specific aggregation temperature, T agg, at which ShHTL7, ShHTL7L143Y, AtD14, and OsD14 aggregated in the presence or absence of Triton X‐100, GR24, and PAA was measured using DSLS on the Stargazer system (Harbinger Biotechnology and Engineering Corporation, Markham, Canada). Protein samples at a concentration of 10 μM were overlaid with mineral oil in a clear bottom 384‐well black plate (Corning) and heated from 20 to 95°C at 1°C/min; light scattering was detected by a CCD camera every 0.5°C in the presence or absence of varying concentrations of Triton X‐100, GR24, and PAA yielding the difference in aggregation temperature at a particular concentration from apoproteins (ΔT agg). Data were normalized, and ΔT agg plotted against the Triton X‐100, GR24, and PAA concentration. Resulting data were plotted to determine the change in T agg of all proteins when bound to Triton X‐100, GR24, and PAA using GraphPad (Prism 6)."}, "Striga hermonthica seeds": {"tested_on": "Striga hermonthica seeds", "assay": "Striga hermonthica germination bioassay", "type": "in vivo", "description": "Striga hermonthica seeds were collected from Sorghum bicolor field in Sudan. For germination bioassays, Striga seeds were first sterilized and pre‐conditioned as described before 31. […] Triton X‐100/GR24 mixtures were applied (50 μl per disk) in four replicates. Corresponding volumes of GR24 and sterile MiliQ water were included as positive and negative control, respectively. The petri dishes were sealed with parafilm, enfolded with aluminum foil, and incubated for 48 h at 30°C. The germinated (seeds with radicle emerging through the seed coat) and non‐germinated Striga seeds were recorded under a binocular, and germination percentage was calculated."}, "AtD14 [4]": {"target": "T1, AtD14", "assay": "Intrinsic Triton fluorescence binding assay", "settings": "up to 5 μM of AtD14", "description": "(§2) Triton X‐100 has an excitation and emission wavelength of 275 and 302 nm, respectively. ShHTL7, ShHTL7‐L143Y, AtD14, and OsD14 were incubated in 50 mM Tris–HCl pH 7.5, 150 mM NaCl, with or without 0.005% Tween‐20, at concentrations ranging from 10 μM to 1 nM (obtained using serial dilutions) with 154 nM of Triton X‐100 for 1–2 h, and fluorescence values were then measured by SpectraMax i3 (Molecular Devices) at excitation and detection wavelengths of 275 and 302 nm, respectively. […] Data were normalized to the background fluorescence from the protein to obtain the change in Triton X‐100 fluorescence intensity. To determine the K d, the changes in Triton X‐100 fluorescence intensity were plotted against the concentration of the protein using the single binding site model implemented in GraphPad (Prism 6)."}, "OsD14 [5]": {"target": "T2, OsD14", "assay": "Intrinsic Triton fluorescence binding assay", "settings": "up to 5 μM of OsD14", "description": "as §2"}, "ShHTL7 [6]": {"target": "T3, ShHTL7", "assay": "Intrinsic Triton fluorescence binding assay", "description": "as §2"}},
  "note": "Where “and” joins values, the source holds several entries; their conditions need not be identical. Equal entries are not always repeated. Entries after “also recorded” stand apart in the source; their conditions may differ. Where two headings read alike, the source gives them in different places.",
  "data": [
    {"substance": "Triton X-100", "values": [
      {"measurement": "decrease of YLG hydrolysis rate", "setting": "AtD14 [1]; 5 μM Triton", "value": 10, "unit": "%"},
      {"measurement": "effect on YLG hydrolysis activity", "setting": "AtD14 [1]; Triton up to 0.5 μM", "value": "did not impact"},
      {"measurement": "decrease of YLG hydrolysis rate", "setting": "OsD14 [2]; 5 μM Triton", "value": 10, "unit": "%"},
      {"measurement": "effect on YLG hydrolysis activity", "setting": "OsD14 [2]; Triton up to 0.5 μM", "value": "did not impact"},
      {"measurement": "effect on ShHTL7 aggregation temperature (T agg)", "setting": "ShHTL7 [3]; 10 μM protein, varying compound concentrations", "value": "increases; also recorded: stabilized"},
      {"measurement": "effect of Triton pre‐incubation on GR24-induced T agg changes in ShHTL7", "setting": "ShHTL7 [3]; pre‐incubation with Triton, then GR24", "value": "efficiently blocked"},
      {"measurement": "reduction in GR24‐induced germination", "setting": "Striga hermonthica seeds; 15 μM Triton, GR24 0.125–1 nM, 2 days", "value": "~ 50% and 50%"},
      {"measurement": "reduction of Striga germination by Triton", "setting": "Striga hermonthica seeds; in vivo", "value": "up to 50%"},
      {"measurement": "change of Triton fluorescence in presence of protein", "setting": "AtD14 [4]", "value": "did not change"},
      {"measurement": "change of Triton fluorescence in presence of protein", "setting": "OsD14 [5]", "value": "did not change"},
      {"measurement": "Kd for the Triton-ShHTL7 association", "setting": "ShHTL7 [6]; across methods and buffers (authors' reply in peer review file)", "value": "~ 250 nM"},
      {"measurement": "Kd", "setting": "ShHTL7 [6]; in the absence of Tween‐20, read-out: final Kd, intrinsic Triton fluorescence", "value": "233 ± 30", "unit": "nM"},
      {"measurement": "Kd", "setting": "ShHTL7 [6]; wild-type ShHTL7, buffer with 0.005% Tween‐20, converged after 2.5 h of incubation, read-out: dissociation constant (Kd), intrinsic Triton fluorescence", "value": "284 ± 22", "unit": "nM"}
    ]}
  ]
}
